Several values for one entry are separate records, joined by “and”; a condition that tells them apart may be missing. Equal entries are not always repeated.
Each compound was assayed against cAMP and cAMP-inhibited cGMP 3',5'-cyclic phosphodiesterase 10A (Homo sapiens, UniProt Q9Y233) (assay: Enzyme Inhibition Assay: To check the inhibition profile, 5 μL of serial diluted compounds were incubated with 5 μL of diluted PDE10 enzyme (BPS Bioscience, San Diego, Calif.) or tissue homogenate in a 384-well polystyrene assay plate (Corning, Corning, N.Y.) for 30 min at room temperature. After incubation, 10 μL of diluted fluorescein labeled cAMP or cGMP substrate were added and incubated for 60 min at room temperature. The reaction was stopped by adding 60 μL of diluted binding reagents and plates were read on an Envision (Perkin Elmer, Waltham, Mass.) for time resolved fluorescence resonance energy transfer. The data were analyzed with GraphPad Prism (La Jolla, Calif.).).
Chain of cAMP and cAMP-inhibited cGMP 3',5'-cyclic phosphodiesterase 10A (Q9Y233 whole entry): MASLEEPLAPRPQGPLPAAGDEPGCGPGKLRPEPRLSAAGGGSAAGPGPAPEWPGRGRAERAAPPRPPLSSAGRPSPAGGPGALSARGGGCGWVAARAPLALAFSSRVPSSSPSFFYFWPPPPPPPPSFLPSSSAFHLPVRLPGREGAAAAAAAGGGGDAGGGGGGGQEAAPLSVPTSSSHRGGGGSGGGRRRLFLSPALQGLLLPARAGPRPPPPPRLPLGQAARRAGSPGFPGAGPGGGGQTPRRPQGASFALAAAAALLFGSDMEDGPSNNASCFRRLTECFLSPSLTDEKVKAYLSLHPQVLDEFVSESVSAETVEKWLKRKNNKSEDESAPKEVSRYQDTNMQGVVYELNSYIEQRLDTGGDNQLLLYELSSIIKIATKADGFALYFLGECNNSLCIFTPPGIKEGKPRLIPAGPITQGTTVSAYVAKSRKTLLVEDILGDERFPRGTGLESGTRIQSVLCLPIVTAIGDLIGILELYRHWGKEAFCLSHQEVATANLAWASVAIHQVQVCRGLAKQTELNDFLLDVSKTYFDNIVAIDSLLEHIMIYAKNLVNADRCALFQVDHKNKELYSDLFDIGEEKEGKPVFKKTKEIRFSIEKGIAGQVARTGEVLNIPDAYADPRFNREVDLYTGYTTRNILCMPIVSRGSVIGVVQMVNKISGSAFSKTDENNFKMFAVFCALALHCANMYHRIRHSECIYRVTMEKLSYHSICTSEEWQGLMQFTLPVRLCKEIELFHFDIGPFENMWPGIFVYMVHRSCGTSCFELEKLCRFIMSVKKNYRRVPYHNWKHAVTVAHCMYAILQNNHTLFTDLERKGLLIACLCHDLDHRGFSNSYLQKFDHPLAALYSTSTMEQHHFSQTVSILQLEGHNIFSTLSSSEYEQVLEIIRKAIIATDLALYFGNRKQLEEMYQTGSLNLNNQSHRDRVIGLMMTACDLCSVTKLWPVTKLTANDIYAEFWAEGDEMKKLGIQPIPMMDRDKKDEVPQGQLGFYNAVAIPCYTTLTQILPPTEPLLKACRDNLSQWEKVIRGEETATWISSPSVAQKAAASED

SMILES	IC50
CC(C)c1ccc(Cn2c(Nc3ccc(Oc4ncccc4C4CCOCC4)cc3)nc3ccccc32)cc1	31.9 nM
O=C(c1ccc(Oc2ncccc2C2CCOCC2)cc1)c1nc2ncccc2[nH]1	1.34 nM
OC(c1ccc(Oc2ncccc2C2=CCOCC2)cc1)c1nc2ccccc2s1 (stereo not given)	516 nM
O=C(c1ccc(Oc2ncccc2[C@H]2CC[C@@H](O)CC2)cc1)c1nc2ccccc2[nH]1	0.308 nM
O=C(c1ccc(Oc2ncccc2[C@H]2CC[C@H](O)CC2)cc1)c1nc2ccccc2[nH]1	0.101 nM
O=C(c1ccc(Oc2ncccc2[C@H]2CC[C@](O)(C(F)(F)F)CC2)cc1)c1nc2ccccc2[nH]1	12.7 nM
CC(=O)N1CCCC[C@@H]1c1cccnc1Oc1ccc(C(=O)c2nc3ccccc3[nH]2)cc1	0.0645 nM
COc1cccnc1-c1cccnc1Oc1ccc(Nc2nc3ccccc3s2)cc1	232 nM
COc1cccc(-c2cccnc2Oc2ccc(C(=O)c3nc4ccccc4[nH]3)cc2)n1	2.32 nM
O=C(c1ccc(Oc2ncccc2[C@H]2CC[C@@](O)(C(F)(F)F)C2)cc1)c1nc2ccccc2[nH]1	0.728 nM
O=C(c1ccc(Oc2ncccc2[C@@H]2CC[C@](O)(C(F)(F)F)C2)cc1)c1nc2ccccc2[nH]1	1.59 nM
O=C(c1ccc(Oc2ncccc2[C@H]2CC[C@]3(CCO3)CC2)cc1)c1nc2ccccc2[nH]1	0.641 nM
C[C@]1(O)CC[C@H](c2cccnc2Oc2ccc(C(=O)c3nc4ccccc4[nH]3)cc2)C1	0.662 nM
C[C@]1(O)CC[C@@H](c2cccnc2Oc2ccc(C(=O)c3nc4ccccc4[nH]3)cc2)C1	0.763 nM
COc1cccnc1-c1cccnc1Oc1ccc(C(=O)c2nc3ccccc3[nH]2)cc1	17.1 nM
O=C(c1ccc(Oc2ncccc2[C@@H]2CC[C@@H](CO)C2)cc1)c1nc2ccccc2[nH]1	0.315 nM
O=C(c1ccc(Oc2ncccc2[C@@H]2CC[C@H](CO)C2)cc1)c1nc2ccccc2[nH]1	0.312 nM
O=C(c1ccc(Oc2ncccc2[C@H]2CC[C@@H](CO)C2)cc1)c1nc2ccccc2[nH]1	0.212 nM
CC(=O)N1CC=C(c2cncnc2Oc2ccc(C(=O)c3nc4ccccc4[nH]3)cc2)CC1	1.56 nM
COc1cncc(-c2cccnc2Oc2ccc(Nc3nc4ccccc4s3)cc2)c1	4.08 nM
COc1ccc(-c2cccnc2Oc2ccc(C(=O)c3nc4ccccc4[nH]3)cc2)nc1	8.77 nM
O=C(c1ccc(Oc2ncccc2[C@@H]2CCCOCC2)cc1)c1nc2ccccc2[nH]1	0.0505 nM
O=C(c1ccc(Oc2ncccc2-c2ccnc(Cl)c2)cc1)c1nc2ccccc2[nH]1	1.63 nM
C[C@@]1(O)CC[C@@H](c2cccnc2Oc2ccc(Nc3nc4ccccc4s3)cc2)C1	10.7 nM
C[C@]1(O)CC[C@H](c2cccnc2Oc2ccc(Nc3nc4ccccc4s3)cc2)C1	2.31 nM
O[C@H]1CCC[C@H](c2cccnc2Oc2ccc(Nc3nc4ccccc4s3)cc2)C1	9.93 nM
O=C1CCCC(c2cccnc2Oc2ccc(C(=O)c3nc4ccccc4[nH]3)cc2)CC1 (stereo not given)	0.077 nM
Fc1ccc(Cn2c(Nc3ccc(Oc4ncccc4C4CCOCC4)cc3)nc3ccccc32)cc1	9.12 nM

SMILES	IC50
O=C(c1ccc(Oc2ncccc2[C@@H]2CCC[C@@H](O)C2)cc1)c1nc2ccccc2[nH]1	0.145 nM and 0.585 nM
CC(=O)N1CCC(c2cccnc2Oc2ccc(C(=O)c3nc4ccccc4n3C)cc2)CC1	1.06 nM
COc1cnccc1-c1cccnc1Oc1ccc(C(=O)c2nc3ccccc3[nH]2)cc1	0.261 nM
O=C(c1ccc(Oc2ncccc2[C@H]2CCC[C@H](O)C2)cc1)c1nc2ccccc2[nH]1	1.71 nM
Cn1c(C(=O)c2ccc(Oc3ncccc3-c3ccnc(F)c3)cc2)nc2ccccc21	10.3 nM
Cc1cc(-c2cccnc2Oc2ccc(C(=O)c3nc4ccccc4n3C)cc2)ccn1	6.17 nM
CC(=O)N1CC[C@@H](c2cccnc2Oc2ccc(C(=O)c3nc4ccccc4[nH]3)cc2)C1	0.528 nM
COc1ccc(Cn2c(Nc3ccc(Oc4ncccc4C4CCOCC4)cc3)nc3ccccc32)cc1	1.7 nM
COc1nc2ccccc2cc1-c1cccnc1Oc1ccc(C(=O)c2nc3ccccc3[nH]2)cc1	419 nM
c1ccc(-n2ncc3cc(Oc4ncccc4C4CCCCC4)ccc32)nc1	417 nM
O=C(c1ccc(Oc2ncccc2-c2cccnc2F)cc1)c1nc2ccccc2[nH]1	0.162 nM
O=C(c1ccc(Oc2ncccc2-c2cc[nH]c(=O)c2)cc1)c1nc2ccccc2[nH]1	1.17 nM
COc1ccc(-c2cccnc2Oc2ccc(C(=O)c3nc4ccccc4[nH]3)cc2)c(OC)n1	0.694 nM
CSc1cncc(-c2cccnc2Oc2ccc(C(=O)c3nc4ccccc4[nH]3)cc2)c1	1.06 nM
O=C(c1ccc(Oc2ncccc2C2CCS(=O)(=O)CC2)cc1)c1nc2ccccc2[nH]1	0.631 nM
COc1cc(-c2cccnc2Oc2ccc(Nc3nc4ccccc4s3)cc2)ccn1	11.9 nM
COc1cnccc1-c1cccnc1Oc1ccc(C(=O)c2nc3ccccc3n2C)cc1	0.121 nM
COc1cnccc1-c1cccnc1Oc1ccc(Nc2nc3ccccc3s2)cc1	0.747 nM
COc1ccncc1-c1cccnc1Oc1ccc(C(=O)c2nc3ccccc3[nH]2)cc1	0.0725 nM
O=C(c1ccc(Oc2ncccc2C2CCOC2)cc1)c1nc2ccccc2n1CCF (stereo not given)	2.29 nM
COc1ccncc1-c1cccnc1Oc1ccc(Nc2nc3ccccc3s2)cc1	0.902 nM
COc1ccnc(-c2cccnc2Oc2ccc(C(=O)c3nc4ccccc4[nH]3)cc2)c1	4.11 nM
COc1ccnc(-c2cccnc2Oc2ccc(C(=O)c3nc4ccccc4n3C)cc2)c1	1.79 nM
Cc1cnc(Oc2ccc(C(=O)c3nc4ccccc4[nH]3)cc2)c(-c2ccnc(C)c2)c1	1.38 nM
Cc1cnc(Oc2ccc(C(=O)c3nc4ccccc4n3C)cc2)c(-c2ccnc(C)c2)c1	1.14 nM
COc1ncc(-c2ccnc(F)c2)c(Oc2ccc(C(=O)c3nc4ccccc4[nH]3)cc2)n1	22.9 nM
O=C(c1ccc(Oc2ncccc2C2CCNCC2)cc1)c1nc2ccccc2[nH]1	2.07 nM

— ChEMBL document CHEMBL3638462, “Pyridine and pyrimidine derivatives as phosphodiesterase 10 inhibitors” (2014)
